Measurements reported in paper PMC5400620, “Preclinical therapeutic efficacy of a novel blood-brain barrier-penetrant dual PI3K/mTOR inhibitor with preferential response in PI3K/PTEN mutant glioma” (Oncotarget, 2017).

Test: pharmacokinetic study in mice, plasma and brain concentrations by LC-MS/MS
Type: in vivo, nude mice
Procedure: We studied the plasma concentration-time profile of DS following a single PO administration (6 mg/kg) in mice (Figure 1). Plasma concentrations remained generally constant and higher than 2 μmol/L up to 6 hours after treatment. The brain-to-plasma ratio of total concentrations remained unchanged and was approximately 0.1 between 1 and 6 hours after treatment (Figure 1A and 1B). Both plasma and brain DS concentrations decreased at 24 hours after treatment.
Figure 1 A. and B. Plasma and brain concentration-time profile of DS7423 following a single PO administration (6 mg/kg) to nude mice. C. Western blot of mouse brains probed with antibodies against pAkt (Ser473) and pS6 (Ser235/236) in a time profile similar to that shown in A and B. Results are presented as the mean ± SE of six animals in each group.
Mice were implanted with U87 cells intracranially as described previously. Twenty-one days after injection of the tumor cells,mice were randomized into groups. Mice were given a 6 mg/kg oral (PO) dose of DS. Blood samples of approximately 0.15 mL were collected from mice (n = 4 mice per time point) by retro-orbital bleeding in tubes containing K2EDTA as the anticoagulant pre-dose and at 2, 4, 6, and 24 hours post-dose. Plasma was collected and stored at −80°C until analysis. DS concentrations were determined by liquid chromatography-tandem mass spectrometry (LC-MS/MS) following plasma protein precipitation with acetonitrile and injection of the supernatant onto a TSK-GEL ODS-100V column (150 mm × 2 mm, 5 μm particle size). A Shimadzu 10A system (Shimadzu Corp., Kyoto, Japan) coupled with an AB Sciex API4000 triple-quadrupole mass spectrometer (Applied Biosystems, Foster City, CA) was used for the LC-MS/MS assay. […] DS and its internal standard ([^2H8]DS) were analyzed in the multiple reaction monitoring mode using the mass transitions of m/z 521→479 and 529→487, respectively. The lower and upper limits of quantitation were 2 and 5000-ng/mL10 μmol/L, respectively. […] For DS quantitation, mouse brains were homogenized in 3 volumes of 50% acetonitrile. […]

For `CC(=O)N1CCN(c2nc3c(N4CCOCC4)nc(-c4cnc(N)nc4)nc3n2CC(F)(F)F)C[C@H]1C` [DS, 1-{(2R)-4-[2-(2-Aminopyrimidin-5-yl)-6-(morpholin-4-yl)-9-(2,2,2-trifluoroethyl)-9H-purin-8-yl]-2-methylpiperazin-1-yl}ethan-1-one], the “concentration achievable in the mouse brains” value was 200 nM, the Kp at 6 h (nude, mouse, brain and plasma, single PO 6 mg/kg, between 1 and 6 hours after treatment, read-out: brain-to-plasma ratio of total concentrations) was roughly 0.1 and the plasma concentration (single PO 6 mg/kg, up to 6 hours after treatment) was “higher than 2 μmol/L”.
